Measurements taken from patent US11450448B2, “Use of a linear octafluorobutene as a dielectric compound in an environmentally safe dielectric-insulation or arc-extinction fluid” (HITACHI ENERGY SWITZERLAND AG, priority 2016, dated 2022).

Legend:
rats = assay: median lethal concentration (LC50) measured on rats; assay type: in vivo; conditions: compared with C4N and C5K
From the text: Specifically, the term “environmentally safe” also means that the dielectric-insulation or arc-extinction fluid has a relatively low toxicity level. More specifically, the median lethal dose (LC50; lethal concentration 50%; measured on rats) of the dielectric compound used in the environmentally safe dielectric-insulation or arc-extinction fluid is higher than 4′000 ppm, preferably higher than 5′000 ppm and more preferably higher than 6′000 ppm. Thus, the dielectric compound used according to the present invention ranges within the same toxicity class as previously mentioned C4N (having a much higher GWP than the dielectric compound used according to the present invention) and C5K (having a much higher boiling point than the dielectric compound used according to the present invention).

[1] = Decomposition tests: accelerated ageing with GIS materials; assay type: physicochemical; conditions: aged at 100° C. with Cu/Al plates, EPDM sealings, zeolites, SiO2, paints, grease, nitrile-butadiene rubber; analysed after 8 weeks of exposure
Procedure: In order to assess the material compatibility of octafluoro-2-butene towards material typically used in a GIS, the following components were aged at accelerated conditions (at 100° C.) with octafluoro-2-butene gas:
Both the gas as well as the components exposed to the gas were analysed after 8 weeks of exposure.

| Compound | toxicity class (rats) | decomposition of the gas [1] |
| --- | --- | --- |
| linear octafluorobutene [linear octafluorobutenes] | ranges within the same toxicity class as for example heptafluoroisobutyronitrile (C4N) and 1,1,1,3,4,4,4-heptafluoro-3-(trifluoromethyl)-butan-2-one (C5K) |  |
| FC(=C(F)C(F)(F)F)C(F)(F)F [octafluoro-2-butene] |  | For none of the tests, a decomposition of the octafluoro-2-butene was determined |
